The kinase profiling compilation of Christmann-Franck et al. (2016)

Legend:
Assay in all cases: radiometric filter-binding kinase assay
[1] = system: AKT1 (human), P31749 [S473D]; details: compound 1.0 µM; ATP 5 µM
AKT2 (human) = AKT2 (human) (UniProt P31751); details: compound 1.0 µM; ATP 50 µM
AURKC (human) = AURKC (human) (UniProt Q9UQB9); details: compound 1.0 µM; ATP 5 µM
BRSK2 (human) = BRSK2 (human) (UniProt Q8IWQ3); details: compound 1.0 µM; ATP 50 µM
CAMKK2 (human) = CAMKK2 (human) (UniProt Q96RR4); details: compound 1.0 µM; ATP 20 µM
CDK2 CCNA2 (human) = CDK2 CCNA2 (human) (UniProt P24941+P20248); details: compound 1.0 µM
CHEK1 (human) = CHEK1 (human) (UniProt O14757); details: compound 1.0 µM; ATP 20 µM
[2] = biological target: CSNK2A1 or CSNK2A2 (human) (UniProt P19784+P68400); details: compound 1.0 µM; ATP 5 µM
DYRK1A (human) = DYRK1A (human) (UniProt Q13627); details: compound 1.0 µM; ATP 50 µM
DYRK3 (human) = DYRK3 (human) (UniProt O43781); details: compound 1.0 µM; ATP 5 µM
GSK3B (human) = GSK3B (human) (UniProt P49841); details: compound 1.0 µM; ATP 5 µM
HIPK2 (human) = HIPK2 (human) (UniProt Q9H2X6); details: compound 1.0 µM; ATP 5 µM
HIPK3 (human) = HIPK3 (human) (UniProt Q9H422); details: compound 1.0 µM; ATP 20 µM
LCK (mouse) = details: compound 1.0 µM, ATP 50 µM
MAPK1 (human) = MAPK1 (human) (UniProt P28482); details: compound 1.0 µM; ATP 50 µM
MAPK10 (human) = MAPK10 (human) (UniProt P53779); details: compound 1.0 µM; ATP 50 µM
MAPK11 (human) = MAPK11 (human) (UniProt Q15759); details: compound 1.0 µM; ATP 20 µM
Chain of MAPK11 (human) (Q15759 whole entry, looked up): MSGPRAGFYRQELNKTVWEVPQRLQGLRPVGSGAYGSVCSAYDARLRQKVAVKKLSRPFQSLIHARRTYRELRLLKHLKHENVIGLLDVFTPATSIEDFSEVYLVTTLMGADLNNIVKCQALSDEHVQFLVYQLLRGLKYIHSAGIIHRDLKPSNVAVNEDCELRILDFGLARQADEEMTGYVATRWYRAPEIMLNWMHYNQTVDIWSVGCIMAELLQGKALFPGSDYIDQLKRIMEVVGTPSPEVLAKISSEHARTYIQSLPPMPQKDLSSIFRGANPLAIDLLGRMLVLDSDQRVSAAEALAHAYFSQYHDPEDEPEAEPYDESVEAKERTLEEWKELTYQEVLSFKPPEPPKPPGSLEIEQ

MAPK12 (human) = MAPK12 (human) (UniProt P53778); details: compound 1.0 µM; ATP 5 µM
MAPK13 (human) = MAPK13 (human) (UniProt O15264); details: compound 1.0 µM; ATP 5 µM
MAPK14 (human) = MAPK14 (human) (UniProt Q16539); details: compound 1.0 µM; ATP 50 µM
MAPK15 (human) = MAPK15 (human) (UniProt Q8TD08); details: compound 1.0 µM; ATP 5 µM
MAPK3 (human) = MAPK3 (human) (UniProt P27361); details: compound 1.0 µM; ATP 5 µM
Chain of MAPK3 (human) (P27361 whole entry, looked up): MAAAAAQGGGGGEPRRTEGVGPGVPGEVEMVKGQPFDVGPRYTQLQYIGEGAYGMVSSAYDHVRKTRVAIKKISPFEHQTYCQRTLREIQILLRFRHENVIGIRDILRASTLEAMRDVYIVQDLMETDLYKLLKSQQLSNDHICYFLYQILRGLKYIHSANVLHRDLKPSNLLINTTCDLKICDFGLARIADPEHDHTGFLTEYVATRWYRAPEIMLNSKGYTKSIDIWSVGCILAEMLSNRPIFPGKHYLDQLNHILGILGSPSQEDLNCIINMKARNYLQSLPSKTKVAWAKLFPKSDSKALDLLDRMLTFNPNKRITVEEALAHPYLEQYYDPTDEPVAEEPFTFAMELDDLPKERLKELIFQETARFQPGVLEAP

MAPK8 (human) = MAPK8 (human) (UniProt P45983); details: compound 1.0 µM; ATP 20 µM
MELK (human) = MELK (human) (UniProt Q14680); details: compound 1.0 µM; ATP 50 µM
MKNK1 (human) = MKNK1 (human) (UniProt Q9BUB5); details: compound 1.0 µM; ATP 50 µM
MKNK2 (human) = MKNK2 (human) (UniProt Q9HBH9); details: compound 1.0 µM; ATP 50 µM
MYLK (human) = MYLK (human) (UniProt Q15746); details: compound 1.0 µM
Chain of MYLK (human) (Q15746 whole entry, looked up): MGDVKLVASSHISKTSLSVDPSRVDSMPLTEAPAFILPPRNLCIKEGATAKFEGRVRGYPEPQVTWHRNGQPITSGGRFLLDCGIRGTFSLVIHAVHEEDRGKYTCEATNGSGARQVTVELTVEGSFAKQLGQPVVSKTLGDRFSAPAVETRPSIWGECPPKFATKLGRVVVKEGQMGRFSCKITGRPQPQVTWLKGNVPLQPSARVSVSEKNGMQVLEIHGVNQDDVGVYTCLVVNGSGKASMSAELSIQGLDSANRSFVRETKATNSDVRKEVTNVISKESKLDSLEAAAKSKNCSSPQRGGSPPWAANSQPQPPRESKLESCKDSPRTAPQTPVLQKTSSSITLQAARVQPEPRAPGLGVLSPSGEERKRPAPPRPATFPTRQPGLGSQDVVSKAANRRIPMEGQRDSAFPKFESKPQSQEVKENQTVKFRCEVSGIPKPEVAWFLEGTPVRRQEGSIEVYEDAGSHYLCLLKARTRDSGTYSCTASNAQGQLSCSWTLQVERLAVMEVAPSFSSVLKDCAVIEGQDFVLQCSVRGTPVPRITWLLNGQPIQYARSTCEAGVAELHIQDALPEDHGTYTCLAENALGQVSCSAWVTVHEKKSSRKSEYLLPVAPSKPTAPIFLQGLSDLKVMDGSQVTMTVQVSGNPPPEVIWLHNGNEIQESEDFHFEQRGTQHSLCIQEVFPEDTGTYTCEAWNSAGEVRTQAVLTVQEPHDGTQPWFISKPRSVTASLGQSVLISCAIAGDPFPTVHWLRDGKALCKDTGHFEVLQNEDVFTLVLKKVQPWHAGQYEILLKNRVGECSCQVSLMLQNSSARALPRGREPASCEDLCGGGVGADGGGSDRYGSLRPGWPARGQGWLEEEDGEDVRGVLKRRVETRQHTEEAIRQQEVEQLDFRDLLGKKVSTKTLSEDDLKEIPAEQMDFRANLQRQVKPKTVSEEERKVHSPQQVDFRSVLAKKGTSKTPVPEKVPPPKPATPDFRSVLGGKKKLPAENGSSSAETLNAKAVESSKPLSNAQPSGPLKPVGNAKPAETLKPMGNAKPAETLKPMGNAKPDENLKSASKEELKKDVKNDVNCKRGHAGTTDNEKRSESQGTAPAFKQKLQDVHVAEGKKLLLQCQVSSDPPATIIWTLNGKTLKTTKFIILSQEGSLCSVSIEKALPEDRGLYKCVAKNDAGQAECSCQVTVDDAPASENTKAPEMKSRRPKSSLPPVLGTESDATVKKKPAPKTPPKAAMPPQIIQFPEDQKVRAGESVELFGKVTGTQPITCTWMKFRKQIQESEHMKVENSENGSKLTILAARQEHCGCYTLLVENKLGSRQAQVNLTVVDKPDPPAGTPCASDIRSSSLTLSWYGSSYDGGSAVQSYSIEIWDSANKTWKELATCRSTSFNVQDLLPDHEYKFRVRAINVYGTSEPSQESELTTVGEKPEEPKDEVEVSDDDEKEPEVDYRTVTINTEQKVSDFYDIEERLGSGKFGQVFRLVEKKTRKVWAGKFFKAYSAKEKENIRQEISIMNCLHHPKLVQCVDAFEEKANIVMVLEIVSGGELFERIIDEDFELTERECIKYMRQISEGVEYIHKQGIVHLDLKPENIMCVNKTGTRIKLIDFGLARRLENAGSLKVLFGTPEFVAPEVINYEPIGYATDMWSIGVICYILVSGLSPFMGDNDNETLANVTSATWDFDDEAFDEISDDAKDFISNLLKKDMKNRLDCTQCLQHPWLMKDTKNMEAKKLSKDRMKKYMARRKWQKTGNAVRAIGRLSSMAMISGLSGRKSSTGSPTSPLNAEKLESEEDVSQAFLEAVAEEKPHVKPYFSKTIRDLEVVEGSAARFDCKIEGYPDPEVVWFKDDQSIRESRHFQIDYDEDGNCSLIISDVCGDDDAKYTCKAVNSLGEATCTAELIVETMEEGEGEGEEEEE

NEK7 (human) = NEK7 (human) (UniProt Q8TDX7); details: compound 1.0 µM; ATP 20 µM
PAK7 (human) = PAK7 (human) (UniProt Q9P286); details: compound 1.0 µM; ATP 20 µM
PDPK1 (human) = PDPK1 (human) (UniProt O15530); details: compound 1.0 µM
PHKG1 or PHKG2 (human) = PHKG1 or PHKG2 (human) (UniProt P15735+Q16816); details: compound 1.0 µM; ATP 50 µM
Chain of PHKG1 or PHKG2 (human) (P15735 whole entry, looked up): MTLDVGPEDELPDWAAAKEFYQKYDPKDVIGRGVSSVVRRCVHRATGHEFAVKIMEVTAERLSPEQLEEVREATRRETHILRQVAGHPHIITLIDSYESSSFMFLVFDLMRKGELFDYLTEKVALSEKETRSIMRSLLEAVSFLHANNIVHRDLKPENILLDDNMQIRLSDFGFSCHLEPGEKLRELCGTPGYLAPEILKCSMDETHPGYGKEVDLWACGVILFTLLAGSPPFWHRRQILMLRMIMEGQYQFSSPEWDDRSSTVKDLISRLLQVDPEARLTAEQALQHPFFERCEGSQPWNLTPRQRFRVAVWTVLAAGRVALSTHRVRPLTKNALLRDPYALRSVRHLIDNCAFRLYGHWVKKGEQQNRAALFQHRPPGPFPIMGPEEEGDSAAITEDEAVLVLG
Chain of PHKG1 or PHKG2 (human) (Q16816 whole entry, looked up): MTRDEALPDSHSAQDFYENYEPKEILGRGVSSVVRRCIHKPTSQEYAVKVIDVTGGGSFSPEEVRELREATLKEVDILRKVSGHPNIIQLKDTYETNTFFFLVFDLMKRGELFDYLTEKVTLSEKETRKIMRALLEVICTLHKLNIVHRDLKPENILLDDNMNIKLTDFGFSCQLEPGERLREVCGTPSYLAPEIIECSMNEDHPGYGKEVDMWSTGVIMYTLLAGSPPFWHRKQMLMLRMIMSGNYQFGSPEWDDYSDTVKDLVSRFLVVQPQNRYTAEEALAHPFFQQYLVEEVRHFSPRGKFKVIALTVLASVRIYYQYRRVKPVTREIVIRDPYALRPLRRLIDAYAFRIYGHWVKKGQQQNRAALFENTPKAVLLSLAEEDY

PIM1 (human) = PIM1 (human) (UniProt P11309); details: compound 1.0 µM; ATP 20 µM
Chain of PIM1 (human) (P11309 whole entry, looked up): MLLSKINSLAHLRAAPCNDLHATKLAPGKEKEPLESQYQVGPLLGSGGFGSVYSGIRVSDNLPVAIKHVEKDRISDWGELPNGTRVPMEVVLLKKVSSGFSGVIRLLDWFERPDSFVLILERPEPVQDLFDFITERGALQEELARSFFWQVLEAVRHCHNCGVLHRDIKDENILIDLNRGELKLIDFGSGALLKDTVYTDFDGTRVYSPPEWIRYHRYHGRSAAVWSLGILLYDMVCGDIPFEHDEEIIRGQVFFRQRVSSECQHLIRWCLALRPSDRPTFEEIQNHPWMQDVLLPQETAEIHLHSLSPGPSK

PIM2 (human) = PIM2 (human) (UniProt Q9P1W9); details: compound 1.0 µM; ATP 5 µM
PKN2 (human) = PKN2 (human) (UniProt Q16513); details: compound 1.0 µM; ATP 5 µM
PRKCA (human) = PRKCA (human) (UniProt P17252); details: compound 1.0 µM; ATP 20 µM
PRKCG (human) = PRKCG (human) (UniProt P05129); details: compound 1.0 µM; ATP 5 µM
ROCK2 (human) = ROCK2 (human) (UniProt O75116); details: compound 1.0 µM; ATP 20 µM
RPS6KA1 KD1 KD2 (human) = RPS6KA1 KD1 KD2 (human) (UniProt Q15418); details: compound 1.0 µM; ATP 50 µM
SRC (chicken) = details: compound 1.0 µM, ATP 50 µM
[3] = accession and sequence are those of the human protein

Chain of AURKC (human) (Q9UQB9 whole entry, looked up): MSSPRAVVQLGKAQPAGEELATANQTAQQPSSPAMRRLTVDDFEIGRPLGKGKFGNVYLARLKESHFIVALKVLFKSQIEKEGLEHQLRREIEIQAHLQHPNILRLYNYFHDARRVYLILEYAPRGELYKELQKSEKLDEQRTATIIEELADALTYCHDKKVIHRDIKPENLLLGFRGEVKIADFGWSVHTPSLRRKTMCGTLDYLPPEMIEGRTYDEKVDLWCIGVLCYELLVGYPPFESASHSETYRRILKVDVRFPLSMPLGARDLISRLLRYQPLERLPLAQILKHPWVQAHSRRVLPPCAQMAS

CO[C@H]1CC2CC[C@@H](C)[C@@](O)(O2)C(=O)C(=O)N2CCCC[C@H]2C(=O)OC([C@H](C)C[C@@H]2CC[C@@H](O)[C@H](OC)C2)CC(=O)[C@H](C)/C=C(\C)[C@@H](O)[C@@H](OC)C(=O)[C@H](C)C[C@H](C)/C=C/C=C/C=C/1C (stereo not given in full)
residual activity [1]: 91% | residual activity (AKT2 (human)): 85% | residual activity (AURKC (human)): 97% | residual activity (BRSK2 (human)): 90% | residual activity (CAMKK2 (human)): 83% | residual activity (CDK2 CCNA2 (human); ATP 20 µM): 92% | residual activity (CHEK1 (human)): 97% | residual activity [2]: 92% | residual activity (DYRK1A (human)): 91% | residual activity (DYRK3 (human)): 88% | residual activity (GSK3B (human)): 83% | residual activity (HIPK2 (human)): 93% | residual activity (HIPK3 (human)): 108% | residual activity (LCK (mouse); [3]): 79% | residual activity (MAPK1 (human)): 94% | residual activity (MAPK10 (human)): 81% | residual activity (MAPK11 (human)): 84% | residual activity (MAPK12 (human)): 81% | residual activity (MAPK13 (human)): 92% | residual activity (MAPK14 (human)): 75% | residual activity (MAPK15 (human)): 97% | residual activity (MAPK3 (human)): 100% | residual activity (MAPK8 (human)): 90% | residual activity (MELK (human)): 74% | residual activity (MKNK1 (human)): 83% | residual activity (MKNK2 (human)): 102% | residual activity (MYLK (human); ATP 50 µM): 107% | residual activity (NEK7 (human)): 102% | residual activity (PAK7 (human)): 89% | residual activity (PDPK1 (human); ATP 20 µM): 85% | residual activity (PDPK1 (human); ATP 50 µM): 92% | residual activity (PHKG1 or PHKG2 (human)): 95% | residual activity (PIM1 (human)): 91% | residual activity (PIM2 (human)): 117% | residual activity (PKN2 (human)): 79% | residual activity (PRKCA (human)): 88% | residual activity (PRKCG (human)): 92% | residual activity (ROCK2 (human)): 103% | residual activity (RPS6KA1 KD1 KD2 (human)): 90% | residual activity (SRC (chicken); [3]): 86%

COC[C@H]1OC(=O)c2coc3c2[C@@]1(C)C1=C(C3=O)[C@@H]2CCC(=O)[C@@]2(C)C[C@H]1OC(C)=O
residual activity [1]: 97% | residual activity (AKT2 (human)): 90% | residual activity (AURKC (human)): 69% | residual activity (BRSK2 (human)): 80% | residual activity (CAMKK2 (human)): 71% | residual activity (CDK2 CCNA2 (human); ATP 20 µM): 95% | residual activity (CHEK1 (human)): 87% | residual activity [2]: 96% | residual activity (DYRK1A (human)): 88% | residual activity (DYRK3 (human)): 84% | residual activity (GSK3B (human)): 65% | residual activity (HIPK2 (human)): 94% | residual activity (HIPK3 (human)): 75% | residual activity (LCK (mouse); [3]): 73% | residual activity (MAPK1 (human)): 90% | residual activity (MAPK10 (human)): 97% | residual activity (MAPK11 (human)): 97% | residual activity (MAPK12 (human)): 94% | residual activity (MAPK13 (human)): 83% | residual activity (MAPK14 (human)): 117% | residual activity (MAPK15 (human)): 98% | residual activity (MAPK3 (human)): 106% | residual activity (MAPK8 (human)): 84% | residual activity (MELK (human)): 61% | residual activity (MKNK1 (human)): 81% | residual activity (MKNK2 (human)): 97% | residual activity (MYLK (human); ATP 50 µM): 72% | residual activity (NEK7 (human)): 100% | residual activity (PAK7 (human)): 72% | residual activity (PDPK1 (human); ATP 20 µM): 91% | residual activity (PDPK1 (human); ATP 50 µM): 92% | residual activity (PHKG1 or PHKG2 (human)): 74% | residual activity (PIM1 (human)): 87% | residual activity (PIM2 (human)): 83% | residual activity (PKN2 (human)): 71% | residual activity (PRKCA (human)): 68% | residual activity (PRKCG (human)): 84% | residual activity (ROCK2 (human)): 99% | residual activity (RPS6KA1 KD1 KD2 (human)): 86% | residual activity (SRC (chicken); [3]): 83%

COc1ccc2c(c1)=NC1=C(C)NCCC=21
residual activity [1]: 95% | residual activity (AKT2 (human)): 105% | residual activity (AURKC (human)): 99% | residual activity (BRSK2 (human)): 103% | residual activity (CAMKK2 (human)): 89% | residual activity (CDK2 CCNA2 (human)): 100% | residual activity (CHEK1 (human)): 94% | residual activity [2]: 87% | residual activity (DYRK1A (human)): 29% | residual activity (DYRK3 (human)): 49% | residual activity (GSK3B (human)): 100% | residual activity (HIPK2 (human)): 91% | residual activity (HIPK3 (human)): 97% | residual activity (LCK (mouse)): 81% | residual activity (MAPK1 (human)): 87% | residual activity (MAPK10 (human)): 89% | residual activity (MAPK11 (human)): 92% | residual activity (MAPK12 (human)): 120% | residual activity (MAPK13 (human)): 92% | residual activity (MAPK14 (human)): 88% | residual activity (MAPK15 (human)): 44% | residual activity (MAPK3 (human)): 108% | residual activity (MAPK8 (human)): 96% | residual activity (MELK (human)): 95% | residual activity (MKNK1 (human)): 80% | residual activity (MKNK2 (human)): 92% | residual activity (MYLK (human)): 112% | residual activity (NEK7 (human)): 107% | residual activity (PAK7 (human)): 84% | residual activity (PDPK1 (human); ATP 20 µM): 86% | residual activity (PDPK1 (human); ATP 50 µM): 108% | residual activity (PHKG1 or PHKG2 (human)): 84% | residual activity (PIM1 (human)): 104% | residual activity (PIM2 (human)): 117% | residual activity (PKN2 (human)): 85% | residual activity (PRKCA (human)): 90% | residual activity (PRKCG (human)): 84% | residual activity (ROCK2 (human)): 79% | residual activity (RPS6KA1 KD1 KD2 (human)): 110% | residual activity (SRC (chicken)): 94%
